From patent US20060229255A1, “Identification of n-alkylglycine trimers for induction of apoptosis” (priority 2003, published 2006)

What was measured:
pRb, p21Cip1, p27Kip1 = assay: Western blot of G0/G1 checkpoint proteins in HT29 cells; assay type: cell-based, human; settings: for pRb levels compared to controls: HT29, after 24 h in culture
Procedure: Western blotting. Floating and adherent cells were harvested and pellets were resuspended in RIPA buffer (50 mM Tris/HCl 7.4, 250 mM NaCl, 0,5% Igepal CA630, 5 mM EDTA, 1 mM PMSF, 10 μg/ml leupeptin, 50 mM NaF, 0.1 mM Na3VO4) or Deoxycholate buffer (10 mM phosphate buffer 7.4, […] NaCl, 0.5% Deoxycholate, 1% Igepal, 0.1% SDS, 1 mM PMSF). Protein concentration was determined with BCA Protein Assay Kit (Pierce) for RIPA extracts or Bradford assay (BioRad) for Deoxycholate extracts. Total protein (20-30 μg/lane) were separated by SDS-PAGE, transferred to PVDF membranes (Gellman), and probed with antibodies against Bcl-xL (Transduction); Bax (Santa Cruz); JNK (Santa Cruz); phospho-JNK (Cell Signaling); pRb (Pharmingen); pRb-phospho Ser780 (Cell Signalling); p130 (Santa Cruz); p107 (Santa Cruz); Cdk2 (Santa Cruz); p27^Kip1 (Santa Cruz); p21^Cip1 (Santa Cruz); actin (Sigma); or tubulin (ICN) and developed with ECL system (AmershamPharmacia biotech)
FIG. 8. Expression of protein involved in G0/G1 checkpoint. (A.) HT29 cells were treated for 1, 3, 6 and 24 h with N10-13-10C (40 μM) or N13-13-10C (35 µM), harvested and immunoblotted to assess total pRb levels or Cdk4 specific phosphorylation at pRb-Ser^780 (PpRb). Western blot was first probed with the pRb-Ser^780 phosphorylation specific antibody, was stripped and reprobed with the pan-pRb antibody and tubulin to normalize total protein level. (B.) T98 g cells were synchronized by serum starvation and reinitiated with 10% FCS and DMSO (C), N13-13-10C (100 μM) or Taxol (30 nM) for 15, 17, 24 or 29 h. Western blot of total protein extracts was probed with antibodies to p130, pRb, p107, Cdk2, cycA, p27, p21 and actin. Unphosphorylated, hypophosphorylated as well as hyperphosphorylated pRb are detected (arrows). (C.) HT29 cells treated for 24 and 48 h with N13-13-10C (40 μM) or DMSO as control. Immunoblots were stained with antibodies to Cdk2, cycA, p21, p27 and actin.

cycA-Cdk2 = cycA-Cdk2 (Homo sapiens, UniProt P24941); assay: In vitro kinase assay for Cdk2; assay type: biochemical; settings: 3 μM or 30 μM
Procedure: We had observed that cycA protein levels and pRb hypophosphorylation decrease in cell extracts of N10-13-10C or N13-13-10C treated cells (FIG. 8). To assess whether these compounds were direct inhibitors of Cdk2 activity, in vitro kinase assays for Cdk2 were performed.
Kinase assays for testing of Cdk2/CycA-E kinase activity. ELISA plates were blocked with 200 μl of blocking solution (PBS containing 1% BSA, 0.02% Tween and 0.02% sodium Azide) overnight at 4° C. Plates were then subsequently washed 3 times, 5 min each with 100 μl of washing solution (PBS containing 0.02% Tween and 0.02% sodium Azide). Plates were then dried during 2-4 h at room temperature. Kinase assay was performed in kinase buffer (Hepes 25 mM pH 7.4 and MgCl2 10 mM) containing 4 μg of histone H1, 30 μM ATP, 2 mM DTT, 0.1 μl of ATP-P^32, 800 nM GST-CDK2, and 800 nM of GST-cyclin A in a final volume of 60 μl. Assays were carried out in the presence or absence of different concentrations of peptide mixtures to be checked. A inhibitory control was performed adding 800 nM of p21 to the reaction media. Mixtures were incubated for 30 min at 37° C. After incubation, 50 μl of each mixture was filtered in nitrocellulose membranes placed in a dot blot apparatus. […] The radioactivity associated to the membranes was detected with a “Phosphor-imager”.

[1] = test system: HT29 human colon adenocarcinoma cells; assay: Cellular proliferation assay (MTT); assay type: cell-based; settings: for IC50: HT29, MTT assay after 72 h, read-out: IC50 proliferation inhibition; for Anti-proliferative effect in combination with serial dilutions of Taxol versus Taxol alone: HT29, compound at its IC50, 72 h; for Effect of Taxol on the compound's proliferation inhibition: HT29, with low dose of Taxol (11 nM), 72 h
Text: For screening of the peptoid library containing 10.648 compounds, controlled mixtures of trimers of N-alkylglycine oligomer molecules (peptoid) have been used and constructed under […] positional scanning formats. Chemical diversity was introduced through the substitution of position R1, R2 and R3 by 22 different primary amines. 66 controlled mixtures divided into three different subgroups depending on the R1, R2, R3 defined position. The library was screened on a cellular proliferation assay with HT29 human colon adenocarcinoma cells. The compounds were tested either alone or together with a low dose of Taxol (11 nM). After 72 h in culture, cellular viability was measured with the MTT assay.
Cellular Assays. Combinatorial libraries were screened on a cellular proliferation assay with HT29 human colon adenocarcinoma cells. The compounds were tested either alone or together with low doses of Taxol (nM). After 3 days in culture, cellular viability was measured with an MTT assay (3-4,5-Dimethyl-2-thiazolyl-2,5-diphenyl-2H-tetrazolium bromide). MTT was added at a final concentration of 1 mg/ml in the cell cultures, and after 4 h incubation at 37° C. cell lysis was performed with 15% SDS/DMF (v/v). Spectrophotometric measurement of MTT-formazan at 570 nm and a reference filter at 630 nm allows quantitation of cellular viability. Proliferation inhibition due to the compounds alone was compared to inhibition observed in Taxol plus compound treated cultures.
FIG. 1. Compounds N10-13-10C, N13-13-10C, N4-13-10C and N5-13-10C inhibit HT29 proliferation. Taxol interferes the effect of N10-13-10C and N13-13-10C. (A, B) HT29 cells were grown with peptoid at several concentrations with or without Taxol (11 nM). MTT assay was performed after 72 h of treatment. Proliferation inhibition is shown for N4-13-10C and N13-13-10C (A.), N5-13-10C and N10-13-10C (B.) compared to proliferation of control cells. IC50 value is specified for each peptoid. N10-13-10C and N13-13-10C were purified peptoids by HPLC, corresponding to the major and active fraction. N4-13-10C and N5-13-10C peptoids were not purified by HPLC. […] Proliferation was evaluated by MTT assay after 72 h of treatment. An arbitrary value of 100% was assigned to the densiometric rate of untreated cultures and all other values are depicted relative to that reference. The values are means of six (n=6) replicates.

Row | Compound | pRb levels compared to controls (pRb, p21Cip1, p27Kip1) | Inhibition of cycA-Cdk2 kinase activity (cycA-Cdk2) | IC50 [1] [µM] | Anti-proliferative effect in combination with serial dilutions of Taxol versus Taxol alone [1] | Effect of Taxol on the compound's proliferation inhibition [1] | pRb phosphorylation at Ser780 respect to total pRb levels (pRb, p21Cip1, p27Kip1; HT29, 35 μM, 1-24 h) | p21Cip1 expression (pRb, p21Cip1, p27Kip1; HT29, 24 h and 48 h) | p27Kip1 expression (pRb, p21Cip1, p27Kip1; HT29, 24 h and 48 h)
1 | COc1ccc(CCN(CC(=O)N(CCc2ccccc2)CC(N)=O)C(=O)CNCCc2ccccc2)cc1 [N10-13-10C] | decreased | Neither of both compounds was able to inhibit | 40 | potentated anti-proliferative effect | Taxol prevented the compound's effect | – | – | –
2 | COc1ccc(CCNCC(=O)N(CCc2ccc(OC)cc2)CC(=O)N(CCc2ccccc2)CC(N)=O)cc1 [N13-13-10C] | decreased | Neither of both compounds was able to inhibit | 35 | potentated anti-proliferative effect | Taxol prevented the compound's effect | did not decrease | Over expression | Over expression
